Measurements from patent publication US5677322A, “Maillard reaction inhibitor” (Otsuka Pharmaceutical Co., Ltd., priority 1993, dated 1997).

test system: Lysozyme; test: Inhibition of Maillard reaction: suppression of lysozyme dimer formation (lysozyme + fructose, SDS-PAGE); type: biochemical; conditions: inhibition ratio of test compound to aminoguanidine (positive control); lysozyme 10 mg/ml, fructose 100 mM, 0.2M sodium phosphate pH 7.4, 37° C., 3 days; dimer amount by SDS-PAGE
Procedure: Lysozyme and fructose were dissolved in a buffer solution of 0.2M sodium phosphate (pH 7.4) to respectively give concentrations of 10 mg/ml and 100 mM. After incubating at 37° C. for 3 days, a definite amount of the mixture was taken out and electrophoresed with the use of SDS-PAGE. After the completion of the electrophoresis, the gel was stained with 0.2% Coomassie Brilliant Blue R-250 and the amount of the dimer thus formed was determined.
Each of the test compounds was added before the initiation of the incubation and the effect of suppressing the formation of the dimer was examined at various concentrations, whereby the IC50 value was obtained. As a positive control, aminoguanidine, which is a known glycation inhibitor, was employed and the inhibition ratio of the test compound to aminoguanidine (IC50 of aminoguanidine/IC50 of test compound) was calculated.

IC50 of aminoguanidine/IC50 of test compound | Molecule
7.4 | CC(C)=NN=C1NC(=O)C(CC(=O)Nc2ccc(F)c(F)c2)S1 (stereo not shown) [Test compound 49, 5-[N-(3,4-difluorophenyl)carbamoylmethyl]-2-isopropylidenehydrazonothiazolidin-4-one]
7.3 | COc1ccc(NC(=O)CC2SC(=NN=C(C)C)NC2=O)c(C)c1 (stereo not shown) [Test compound 116, 2-Isopropylidenehydrazono-5-[N-(4-methoxy-2-methylphenyl)carbamoylmethyl]thiazolidin-4-one]
3.5 | 2-Isopropylidenehydrazino-4-methylthiazole [Test compound 23]
1.5 | 5-{N-[1-carboxy-2-(4-benzyloxyphenyl)ethyl]carbamoylmethyl}-2-isopropylidenehydrazonothiazolidin-4-one [Test compound 101]
0.7 | CC(C)=NN=C1NC(=O)C(CC(=O)N[C@@H](Cc2c[nH]c3ccccc23)C(=O)O)S1 (stereo partly shown) [Test compound 104, 5-{N-[1-carboxy-2-(3-indolyl)ethyl]carbamoylmethyl}-2-isopropylidenehydrazonothiazolidin-4-one]
0.8 | 2-Isopropylidenehydrazono-5-[N-(3,4,5-trichlorophenyl)carbamoylmethyl]thiazolidin-4-one [Test compound 57]
3.1 | 5-[N-(4-carboxyphenyl)carbamoylmethyl]-2-isopropylidenehydrazonothiazolidin-4-one [Test compound 16]
3.9 | 2-Isopropylidenehydrazono-5-[N-(2-methoxycarbonyl-4-methylphenyl)carbamoylmethyl]imidazolidin-4-one [Test compound 96]
4.4 | 5-(4-Benzyloxybenzyl)-2-isopropylidenehydrazonothiazolidin-4-one [Test compound 12]
1.7 | 5-[N-(1-carboxy-3-methylbutyl)carbamoylmethyl]-2-isopropylidenehydrazonothiazolidin-4-one [Test compound 103]
1.6 | CC(C)=NN=C1NC(=O)C(Cc2ccccc2)N1 (stereo not shown) [Test compound 3, 5-Benzyl-2-isopropylidenehydrazonoimidazolidin-4-one]
1.1 | CC(C)=NN=C1NC(=O)C(c2ccc(O)cc2)N1 (stereo not shown) [Test compound 7, 5-(4-Hydroxyphenyl)-2-isopropylidenehydrazonoimidazolidin-4-one]
5.4 | COc1cc(NC(=O)CC2SC(=NN=C(C)C)NC2=O)c(C(=O)O)cc1OC (stereo not shown) [Test compound 114, 5-[N-(2-carboxy-4,5-dimethoxyphenyl)carbamoylmethyl]-2-isopropylidenehydrazonothiazolidin-4-one]
3.5 | CC(C)=NN=C1NC(=O)C(CC(=O)NCc2ccccc2)S1 (stereo not shown) [Test compound 30, 5-(N-Benzylcarbamoylmethyl)-2-isopropylidenehydrazonothiazolidin-4-one]
1.5 | CC(C)=NN=C1NC(=O)C(C(C)C)N1 (stereo not shown) [compound 79]
1.5 | O=C1NC(=NNS(=O)(=O)c2ccc(Br)cc2)NC1Cc1ccc(OCc2ccccc2)cc1 (stereo not shown) [Test compound 75]
0.6 | 5-(N-isopropylcarbamoylmethyl)-2-isopropylidenehydrazonothiazolidin-4-one [Test compound 31]
3.0 | CCOC(=O)CN1C(=O)C(CC(=O)O)SC1=NN=C(C)C (stereo not shown) [Test compound 20, 5-Carboxymethyl-3-ethoxycarbonylmethyl-2-isopropylidenehydrazonothiazolidin-4-one]
4.3 | 2-Isopropylidenehydrazono-5-{N-[1-methoxycarbonyl-2-(3-indolyl)ethyl]carbamoylmethyl}thiazolidin-4-one [Test compound 102]
57 | CC(C)=NN=C1NC(=O)C(CCCCNC(=O)OCc2ccccc2)N1 (stereo not shown) [Test compound 62, 5-(4-Benzyloxycarbonylaminobutyl)-2-isopropylidenehydrazonoimidazolidin-4-one]

The next lines start with the molecule.

Molecule | IC50 of aminoguanidine/IC50 of test compound
CC(C)=NN=C1NC(=O)C(CC(=O)Nc2ccc(OCc3ccccc3)cc2)S1 (stereo not shown) [Test compound 50, 5-[N-(4-benzyloxyphenyl)carbamoylmethyl]-2-isopropylidenehydrazonothiazolidin-4-one] | 0.3
CC(C)=NN=C1NC(=O)C(CC(=O)OCc2ccccc2)N1 (stereo not shown) [Test compound 44, 5-Benzyloxycarbonylmethyl-2-isopropylidenehydrazonoimidazolidin-4-one] | 5.2
5-[N-(2-carboxymethylphenyl)carbamoylmethyl]-2-isopropylidenehydrazonothiazolidin-4-one [Test compound 108] | 3.2
COc1ccc(NC(=O)CC2SC(=NN=C(C)C)NC2=O)cc1OC (stereo not shown) [Test compound 90, 5-[N-(3,4-dimethoxyphenyl)carbamoylmethyl]-2-isopropylidenehydrazonothiazolidin-4-one] | 42
CC(C)=NN=C1NC(=O)C(Cc2ccc(OCc3ccccc3)cc2)N1 (stereo not shown) [Test compound 1, 5-(4-Benzyloxybenzyl)-2-isopropylidenehydrazonoimidazolidin-4-one] | 3.6
CC(C)=NN=C1NC(=O)C(Cc2ccc(OCc3c(Cl)cccc3Cl)cc2)N1 (stereo not shown) [Test compound 5, 5-[4-(2,6-Dichlorobenzyloxy)benzyl]-2-isopropylidenehydrazonoimidazolidin-4-one] | 8.0
5-(N-carboxymethylcarbamoylmethyl)-2-isopropylidenehydrazonothiazolidin-4- one [Test compound 47] | 1.7
O=C1CN2C(=NN1)NC(=O)C2COCc1ccccc1 (stereo not shown) [Test compound 29, 9-Benzyloxymethyl-1,4,5,7-tetraazabicyclo[4.3.0]nonan-5-ene-3,8-dione] | 0.6
2-Isopropylidenehydrazono-5-(N-morpholinocarbamoylmethyl)thiazolidin-4-one [Test compound 69] | 1.1
2-Isopropylidenehydrazono-5-[N-(1-naphthyl)carbamoylmethyl]thiazolidin-4-one [Test compound 59] | 0.8
2-(4-Acetoamidobenzenesulfonohydrazono)-5-(4-benzyloxybenzyl)imidazolidin- 4-one [Test compound 76] | 7.9
5-[N-(1-ethoxycarbonyl-3-methylbutyl)carbamoylmethyl]-2-isopropylidenehydrazonothiazolidin-4-one [Test compound 97] | 2.3
5-[N-(3-ethoxycarbonylphenyl)carbamoylmethyl]-2-isopropylidenehydrazonothiazolidin-4-one [Test compound 105] | 4.2
CC(C)=NN=C1NC(=O)C(CC(=O)O)N1 (stereo not shown) [Test compound 45, 5-Carboxymethyl-2-isopropylidenehydrazonoimidazolidin-4-one] | 4.8
